According to publication PMC4975031, “A multifunctional GH39 glycoside hydrolase from the anaerobic gut fungus Orpinomyces sp. strain C1A” (PeerJ, 2016):

Legend:
Bgxg1 [1] = target: T1, Bgxg1 (Pecoramyces ruminantium, UniProt A0A0U3AYH9); assay: p-nitrophenol release, Lineweaver-Burk; assay type: biochemical; conditions: pH 6.0, sodium acetate buffer, 39 °C; printed BDL (below detection limit, 500 nM)
T1 construct: codon-optimised fragment, 939 bp [sic], nucleotide positions 67-1,035 of transcript m.21910 (signal peptide predicted in full-length product)
T1 sequence (A0A0U3AYH9 23-335 limits assumed): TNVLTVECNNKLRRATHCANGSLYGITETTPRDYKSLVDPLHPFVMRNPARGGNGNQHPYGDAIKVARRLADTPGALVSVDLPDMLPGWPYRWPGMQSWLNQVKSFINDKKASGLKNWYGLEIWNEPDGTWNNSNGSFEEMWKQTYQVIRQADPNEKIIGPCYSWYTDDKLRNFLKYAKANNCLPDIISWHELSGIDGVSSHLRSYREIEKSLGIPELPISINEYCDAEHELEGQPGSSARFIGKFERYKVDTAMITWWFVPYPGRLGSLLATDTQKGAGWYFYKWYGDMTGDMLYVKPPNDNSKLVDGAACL
From the text: (§1) p-nitrophenol release, Lineweaver-Burk on Bgxg1

Bgxg1 [2] = target: T1, Bgxg1; assay: substrate competition: PNPG hydrolysis in presence of xylobiose; assay type: biochemical; conditions: read-out: Relative specific activity (%)
From the text: substrate competition: PNPG hydrolysis in presence of xylobiose on Bgxg1

[3] = system: T2, O=[N+]([O-])c1ccc(O[C@@H]2OC[C@@H](O)[C@H](O)[C@H]2O)cc1; assay: p-nitrophenol release, Lineweaver-Burk; assay type: biochemical, Pecoramyces ruminantium; conditions: pH 6.0, sodium acetate buffer, 39 °C
T2 construct: codon-optimised fragment, 939 bp [sic], nucleotide positions 67-1,035 of transcript m.21910 (signal peptide predicted in full-length product)
From the text: as §1

O=[N+]([O-])c1ccc(O[C@@H]2O[C@H](CO)[C@@H](O)[C@H](O)[C@H]2O)cc1 [PNPG, p-nitrophenyl-β-D-glucopyranoside]
Km (Bgxg1 [1]): < 0.5 µM

O=[N+]([O-])c1ccc(O[C@@H]2O[C@H](CO)[C@H](O)[C@H](O)[C@H]2O)cc1 [PNPGal, p-nitrophenyl-β-D-galactopyranoside]
Km (Bgxg1 [1]): < 0.5 µM

OC1OC[C@@H](O[C@@H]2OC[C@@H](O)[C@H](O)[C@H]2O)[C@H](O)[C@H]1O (some centres unmarked) [xylobiose]
activity at 20000 µM (Bgxg1 [2]): 57.2%

Bgxg1 (Pecoramyces ruminantium)
Km [3]: 4.85 ± 0.62 µM | Vmax [3]: 127 µmol/min/mg
